From patent publication US20240382451A1, “ORGANONITRO AND SULFOXYALKYL ORGANONITRO COMPOUNDS FOR USE IN TREATING MEDICAL DISORDERS” (EpicentRx, Inc., priority 2021, published 2024)

How the values were obtained:
[1] = tested on: bone marrow derived macrophages (BMDMs); assay: DSS-primed bone marrow derived macrophages: IL-1β release; format: cell-based; conditions: BMDMs primed with DSS, 0.5 μM or 1.0 μM RRx-001
Protocol: FIG. 5 depicts IL-1β release from the four groups of bone marrow derived macrophages (BMDMs): (i) control (not primed with DSS). (ii) DSS+vehicle (primed with DS but not treated with RRx-001), (iii) DSS+RRx-001 (0.5 μM; primed with DSS and treated with 0.5 μM RRx-001), and (iv) DSS+RRx-001 (1.0 μM; primed with DSS and treated with 1.0 μM RRx-001).

[2] = tested on: 3×Tg-AD mice; assay: Oxidative stress markers and amyloid plaque density in aged 3×Tg-AD mice; format: in vivo, mouse; conditions: 2 mg/kg intraperitoneal once weekly for 3 months
Protocol: (§1) The neuroprotective effects of RRx-001 administration on Alzheimer's Disease (AD), which has been linked to aberrant NLR family pyrin domain containing 3 (NLRP3) activation, were evaluated via intraperitoneal injection once weekly for 3 months on aged (18-21 months old) homozygous triple transgenic AD mouse model (3×Tg-AD, Jackson Labs). 3×Tg mice received either 2 mg/kg RRx-001 (n=3) or vehicle (n=3), and were evaluated against control non-transgenic mice (NonTg, Jackson Labs) that were untreated (n=3).

[3] = tested on: 3×Tg-AD mice; assay: Morris water maze test in aged triple transgenic Alzheimer's disease mouse model; format: in vivo; conditions: 2 mg/kg intraperitoneal once weekly for 3 months
Protocol: as §1
Five days after the last treatment, the mice were tested using a Morris water maze test. The next week, the mice were exposed to an elevated maze test. The latency to reach the exact hidden platform location on the Morris water maze test (FIG. 1A) and the number of crossings of the platform target quadrant (FIG. 1B) were recorded.

[4] = tested on: C57BL/6 mice; assay: Dextran sulfate sodium (DSS) induced colitis in mice; format: in vivo, mouse; conditions: 2% or 4% DSS for 9 days, 5 or 10 mg/kg
From the text: Colitis was induced in C57BL/6 mice with 2% or 4% dextran sulfate sodium (DSS; 40 kDa) dissolved in drinking water given ad libitum for 9 days. Control mice were given filtered water. FIG. 6A depicts changes in mice body weight over a 9-day period for each of the three groups: (i) control (filtered water), (ii) 2% DSS, and (iii) 4% DSS. FIG. 6B depicts colon length of mice in each group after the 9-day period.
FIGS. 7A and 7B depict changes in mice body weight over a 9-day period for each of the six groups: (i) 2% DSS+vehicle, (ii) 2% DSS+RRx-001 (5 mg/kg), and (iii) 2% DSS+RRx-001 (10 mg/kg) in FIG. 7A; and (iv) 4% DSS+vehicle, (v) 4% DSS+RRx-001 (5 mg/kg), and (vi) 4% DSS+RRx-001 (10 mg/kg) in FIG. 7B. While the 2% or 4% DSS was given ad libitum for 9 days as described above, vehicle, 5 mg/kg RRx-001, or 10 mg/kg RRx-001 was given as intravascular injections of pre-mixed blood formulations every other day during the 9-day period. […] FIGS. 7C and 7D depict colon length of mice in each of the six groups. […] FIGS. 7E and 7F depict serum IL-1β levels in mice in each of the six groups. […] FIGS. 7G and 7H depict colon homogenate IL-1β levels in mice in each of the six groups. FIGS. 7I and 7J depict colon homogenate IL-1β levels relative to the average IL-1β level of the control (i.e., DSS+vehicle) in mice in each of the six groups.
FIGS. 8A and 8B depict the changes in mice body weight over the 9-day period for each of the six groups: (i) 2% DSS+vehicle. (ii) 2% DSS+RRx-001 (5 mg/kg), and (iii) 2% DSS+RRx-001 (10 mg/kg) in FIG. 8A; and (iv) 4% DSS+vehicle, (v) 4% DSS+RRx-001 (5 mg/kg), and (vi) 4% DSS+RRx-001 (10 mg/kg) in FIG. 8B. While the 2% or 4% DSS was given ad libitum for 9 days as described above, vehicle, 5 mg/kg RRx-001, or 10 mg/kg RRx-001 was given as intraperitoneal injections every other day during the 9-day period. […] FIGS. 8C and 8D depict colon length of mice in each of the six groups. […] FIGS. 8E and 8F depict serum IL-1β levels in mice in each of the six groups. […] FIGS. 8G and 8H depict colon homogenate IL-1β levels in mice in each of the six groups.

[5] = tested on: bone marrow derived macrophages (BMDMs); assay: LPS-primed bone marrow derived macrophages: cytokine expression, IL-1β release, cytosolic Ca2+; format: cell-based; conditions: BMDMs primed with LPS 50 ng/mL for 30 minutes, then 0.5 μM RRx-001 for 4 hours
Protocol: Bone marrow derived macrophages (BMDMs) were primed with LPS (50 ng/mL) for 30 minutes before being treated with RRx-001 (0.5 μM) for 4 hours. FIG. 4A depicts the expression levels of IFN-γ, IL-12, TNF-α, and IL-1β from the three groups: (i) control (not primed with LPS), (ii) LPS+vehicle (primed with LPS but not treated with RRx-001), (iii) and LPS+RRx-001 (primed with LPS and treated with RRx-001). FIG. 4B depicts IL-1β release over time from the three groups. FIG. 4C depicts cytosolic Ca^2+ levels over time for the three groups.

[6] = intraperitoneal injections every other day
[7] = intravascular injections of pre-mixed blood formulations every other day

O=C(CBr)N1CC([N+](=O)[O-])([N+](=O)[O-])C1 [RRx-001, 2-bromo-1-(3,3-dinitroazetidin-1-yl)ethanone]
inflammatory effect of DSS (IL-1β release) [1]: significantly reduces
amyloid plaque density [2]: decrease
lipid peroxidation (thiobarbituric acid-reactive substance (TBAR) levels) [2]: decrease
reduced glutathione (GSH) compared to glutathione disulfide (GSSG) [2]: significant increase
spatial learning tasks (trend in latency across trials) [3]: improvement
latency to locate the platform on the Morris water maze test ([3]; vs vehicle): significantly reduce
DSS-induced expression of colon homogenate IL-1β [4, 6]: reduces
DSS-induced expression of serum IL-1β [4, 6]: reduces
body weight loss due to DSS induced colitis [4, 6]: significantly mitigates
colon length reduction due to DSS induced colitis [4, 6]: mitigates
DSS-induced expression of colon homogenate IL-1β [4, 7]: reduces
DSS-induced expression of serum IL-1β [4, 7]: reduces
body weight loss due to DSS induced colitis [4, 7]: significantly mitigates
colon length reduction due to DSS induced colitis [4, 7]: mitigates
calcium accumulation in activated macrophages (cytosolic Ca2+ levels) [5]: prevents calcium accumulation
inflammation-driven expression of certain cytokines such as IL-1β [5]: significantly reduces
